# Source: patent US9925189B2, “Heterocyclic receptor agonists for the treatment of diabetes and metabolic disorders” (CymaBay Therapeutics, Inc., priority 2006, dated 2018)
# Molecular target: T1, IC-GPCR2 (Homo sapiens, UniProt Q8TDV5, S309L)
# T1 construct: expressed in transfected cells
# T1 sequence (Q8TDV5 1-335 S309L): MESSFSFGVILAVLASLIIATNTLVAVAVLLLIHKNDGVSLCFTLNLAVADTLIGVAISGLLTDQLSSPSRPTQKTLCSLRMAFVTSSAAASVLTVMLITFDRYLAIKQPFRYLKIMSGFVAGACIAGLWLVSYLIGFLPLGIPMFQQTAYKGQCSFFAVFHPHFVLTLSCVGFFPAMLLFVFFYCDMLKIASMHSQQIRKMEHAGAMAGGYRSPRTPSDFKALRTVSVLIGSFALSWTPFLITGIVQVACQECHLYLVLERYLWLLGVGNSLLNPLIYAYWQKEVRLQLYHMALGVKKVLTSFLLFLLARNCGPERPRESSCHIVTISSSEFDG
# Experiment: Stimulation of cAMP in CHO cells stably expressing IC-GPCR2 (HTRF cAMP assay)
# Assay type: cell-based
# Parameters: key to Activity at 10 uM: *: no activity observed when tested at 10 micromolar but no higher concentrations were tested
# Details: 0.5 h, 30 minutes, IC-GPCR2 stably expressing CHO cells, read-out: Activity at 10 uM (% change in FRET signal from DMSO control)
# How it was run: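 CHO cells stably expressing IC-GPCR2, plated at 17500 cells/well, treated next day for 30 min in Ham's F12 with compounds at 6–8 concentrations from 0.00003 to 10 μM; parental CHO cells also screened. Intracellular cAMP read by HTRF competitive immunoassay (665/620 nm ratio). Activity given as % FRET change from DMSO control.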
row,Compound,activation at 10 µM
1,"FC(F)(F)c1cnc(N2CCC(c3nc(COc4ccc(-n5cnnn5)cc4Cl)cs3)CC2)nc1 [Example 166, 2-{4-[4-(2-Chloro-4-tetrazol-1-yl-phenoxymethyl)-thiazol-2-yl]-piperidin-1-yl}-5-trifluoromethyl-pyrimidine]",74%
2,"Cc1cc(C(=O)O)nc(N2CCC(c3nc(COc4ccc(-n5cnnn5)cc4)cs3)CC2)n1 [Example 176, 6-Methyl-2-{4-[4-(4-tetrazol-1-yl-phenoxymethyl)-thiazol-2-yl]-piperidin-1-yl}-pyrimidine-4-carboxylic acid]",43%
3,"Fc1ccnc(N2CCC(c3nc(COc4ccc(-n5cnnn5)cc4)cs3)CC2)n1 [Example 178, 4-Fluoro-2-{4-[4-(4-tetrazol-1-yl-phenoxymethyl)-thiazol-2-yl]-piperidin-1-yl}-pyrimidine]",39%
4,"CCOC(=O)c1cnc(N2CCC(c3nc(COc4ccc(-n5cnnn5)cc4)cs3)CC2)s1 [Example 180, 2-{4-[4-(4-Tetrazol-1-yl-phenoxymethyl)-thiazol-2-yl]-piperidin-1-yl}-thiazole-5-carboxylic acid ethyl ester]",59%
5,"CCc1cnc(N2CCC(c3nc(COc4ccc(-n5cnnn5)nc4)cs3)CC2)nc1 [Example 182, 5-Ethyl-2-{4-[4-(6-tetrazol-1-yl-pyridin-3-yloxymethyl)-thiazol-2-yl]-piperidin-1-yl}-pyrimidine]",78%
6,"FC(F)(F)c1cnc(N2CCC(c3nc(COc4ccc(-n5cnnn5)nc4)cs3)CC2)nc1 [Example 185, 2-{4-[4-(6-Tetrazol-1-yl-pyridin-3-yloxymethyl)-thiazol-2-yl]-piperidin-1-yl}-5-trifluoromethyl-pyrimidine]",83%
7,"c1cc(-n2cnnn2)ccc1OCc1csc(C2CCN(c3cnc(-n4cnnn4)cn3)CC2)n1 [Example 187, 2-Tetrazol-1-yl-5-{4-[4-(4-tetrazol-1-yl-phenoxymethyl)-thiazol-2-yl]-piperidin-1-yl}-pyrazine]",75%
8,"CCCCc1cnc(N2CCC(c3nc(COc4ccc(-n5cnnn5)cc4)cs3)CC2)nc1 [Example 190, 5-Butyl-2-{4-[4-(4-tetrazol-1-yl-phenoxymethyl)-thiazol-2-yl]-piperidin-1-yl}-pyrimidine]",77%
9,"CCc1cnc(N2CCC(c3nc(COc4ccc(N5CCOCC5)cc4)cs3)CC2)nc1 [Example 191, 4-(4-{2-[1-(5-Ethyl-pyrimidin-2-yl)-piperidin-4-yl]-thiazol-4-ylmethoxy}-phenyl)-morpholine]",74%
10,"Fc1cc(-n2cnnn2)ccc1OCc1csc(C2CCN(c3ncc(C(F)(F)F)cc3Cl)CC2)n1 [Example 194, 3′-Chloro-4-[4-(2-fluoro-4-tetrazol-1-yl-phenoxymethyl)-thiazol-2-yl]-5′-trifluoromethyl-3,4,5,6-tetrahydro-2H-[1,2′]bipyridinyl]",29%
11,"Clc1cnc(N2CCC(c3nc(COc4ccc(-n5cnnn5)cc4)cs3)CC2)c(Cl)c1 [Example 196, 3′,5′-Dichloro-4-[4-(4-tetrazol-1-yl-phenoxymethyl)-thiazol-2-yl]-3,4,5,6-tetrahydro-2H-[1,2′]bipyridinyl]",19%
12,"CCc1cnc(N2CCC(c3nc(COCc4ccc(S(C)(=O)=O)cc4)cs3)CC2)nc1 [Example 203, 5-Ethyl-2-{4-[4-(4-methanesulfonyl-benzyloxymethyl)-thiazol-2-yl]-piperidin-1-yl}-pyrimidine]",76%
13,FC(F)(F)c1cnc(N2CCC(c3nc(COc4ccc(-n5cnnn5)cc4)cs3)CC2)nc1 [Example 205],75%

# More lines, now with the values ahead:
row,activation at 10 µM,Compound
1,85%,"CCc1cnc(N2CCC(c3nc(COc4ccc(-n5cnnn5)cc4)co3)CC2)nc1 [Example 169, 5-Ethyl-2-{4-[4-(4-tetrazol-1-yl-phenoxymethyl)-oxazol-2-yl]-piperidin-1-yl}-pyrimidine]"
2,75%,"CCc1cnc(N2CCC(c3nc(COc4ccc(-n5cnnn5)cc4F)co3)CC2)nc1 [Example 170, 5-Ethyl-2-{4-[4-(2-fluoro-4-tetrazol-1-yl-phenoxymethyl)-oxazol-2-yl]-piperidin-1-yl}-pyrimidine]"
3,76%,"Fc1cc(-n2cnnn2)ccc1OCc1csc(C2CCN(c3ncc(C(F)(F)F)cn3)CC2)n1 [Example 171, 2-{4-[4-(2-Fluoro-4-tetrazol-1-yl-phenoxymethyl)-thiazol-2-yl]-piperidin-1-yl}-5-trifluoromethyl-pyrimidine]"
4,75%,"COC(=O)c1cc(C)nc(N2CCC(c3nc(COc4ccc(-n5cnnn5)cc4)cs3)CC2)n1 [Example 173, 6-Methyl-2-{4-[4-(4-tetrazol-1-yl-phenoxymethyl)-thiazol-2-yl]-piperidin-1-yl}-pyrimidine-4-carboxylic acid methyl ester]"
5,78%,"Cc1cnc(N2CCC(c3nc(COc4ccc(-n5cnnn5)nc4)cs3)CC2)nc1 [Example 183, 5-Methyl-2-{4-[4-(6-tetrazol-1-yl-pyridin-3-yloxymethyl)-thiazol-2-yl]-piperidin-1-yl}-pyrimidine]"
6,69%,"Clc1cnc(N2CCC(c3nc(COc4ccc(-n5cnnn5)nc4)cs3)CC2)nc1 [Example 184, 5-Chloro-2-{4-[4-(6-tetrazol-1-yl-pyridin-3-yloxymethyl)-thiazol-2-yl]-piperidin-1-yl}-pyrimidine]"
7,80%,"Clc1ccc(N2CCC(c3nc(COc4ccc(-n5cnnn5)cc4)cs3)CC2)nn1 [Example 186, 3-Chloro-6-{4-[4-(4-tetrazol-1-yl-phenoxymethyl)-thiazol-2-yl]-piperidin-1-yl}-pyridazine]"
8,69%,"CCc1cnc(N2CCC(c3nc(CNc4ccc(F)nc4)cs3)CC2)nc1 [Example 188, {2-[1-(5-Ethyl-pyrimidin-2-yl)-piperidin-4-yl]-thiazol-4-ylmethyl}-(6-fluoro-pyridin-3-yl)-amine]"
9,76%,"CCc1cnc(N2CCC(c3nc(COc4c(F)cc(S(C)(=O)=O)cc4F)cs3)CC2)nc1 [Example 189, 2-{4-[4-(2,6-Difluoro-4-methanesulfonyl-phenoxymethyl)-thiazol-2-yl]-piperidin-1-yl}-5-ethyl-pyrimidine]"
10,74%,"O=[N+]([O-])c1cnc(N2CCC(c3nc(COc4ccc(-n5cnnn5)cc4)cs3)CC2)nc1 [Example 192, 5-Nitro-2-{4-[4-(4-tetrazol-1-yl-phenoxymethyl)-thiazol-2-yl]-piperidin-1-yl}-pyrimidine]"
11,35%,"FC(F)(F)c1cnc(N2CCC(c3nc(COc4ccc(-n5cnnn5)cc4)cs3)CC2)c(Cl)c1 [Example 193, 3′-Chloro-4-[4-(4-tetrazol-1-yl-phenoxymethyl)-thiazol-2-yl]-5′-trifluoromethyl-3,4,5,6-tetrahydro-2H-[1,2′]bipyridinyl]"
12,68%,"Fc1cc(-n2cnnn2)ccc1OCc1csc(C2CCN(c3ncc(Cl)cn3)CC2)n1 [Example 195, 5-Chloro-2-{4-[4-(2-fluoro-4-tetrazol-1-yl-phenoxymethyl)-thiazol-2-yl]-piperidin-1-yl}-pyrimidine]"
13,15%,"COC(=O)c1cc(Cl)cnc1N1CCC(c2nc(COc3ccc(-n4cnnn4)cc3)cs2)CC1 [Example 198, 5′-Chloro-4-[4-(4-tetrazol-1-yl-phenoxymethyl)-thiazol-2-yl]-3,4,5,6-tetrahydro-2H-[1,2′]bipyridinyl-3′-carboxylic acid methyl ester]"

# Same assay, conditions: symbol entry
row,Activity at 10 uM,Compound
1,*,"CCOC(=O)c1cnc(N2CCC(c3nc(COc4ccc(-n5cnnn5)cc4)cs3)CC2)c(Cl)c1 [Example 197, 3′-Chloro-4-[4-(4-tetrazol-1-yl-phenoxymethyl)-thiazol-2-yl]-3,4,5,6-tetrahydro-2H-[1,2′]bipyridinyl-5′-carboxylic acid ethyl ester]"
